The results in this text go back to patent US11578069B2, “Compounds for inhibition of α4 β7 integrin” (Gilead Sciences, Inc., priority 2019, dated 2023).

In general, EC50 refers to the concentration giving half of the maximal effect.

One experiment concerns the target T1, α4β1 integrin (Homo sapiens, UniProt P05556+P13612).
T1 construct: monitoring the capture of α4β1 expressing cells; endogenous in cells; host or cells: Jurkat
In words: α4β1 Cell Capture Assay. The format is cell-based. As to conditions: capture of α4β1 expressing Jurkat cells on VCAM-1 extracellular domain-coated plate. On the procedure:
The potency of inhibitors in preventing α4β1 integrin interaction with VCAM-1 was measured by monitoring the capture of α4β1 expressing cells to a recombinant VCAM-1 extracellular domain-coated plate.
384-well plates (Corning 3702) were coated with VCAM-1 extracellular domain by dispensing 20 μL of VCAM-1 at 0.5 μg/ml per well and incubating overnight at 4° C. The plates were then washed with PBS and blocked with 3% BSA for 2 hours before being washed again.
(§1) Jurkat cells were spun down and re-suspended in assay medium (DMEM+0.5% FBS+0.5 mM MnCl2) at a density of 0.5×10^6 cells/ml. The cells were then dispensed (60 μL/well) to a 384-well plate (Greiner 781280) that was previously spotted with 60 nL of test compound per well. The plates were incubated at 37° C. for 1 hour. 50 μL of cells were transferred to the blocked, VCAM-1-coated plates and incubated for 30 minutes at 37° C. 10 μl of 12% glutaraldehyde containing Hoechst 33342 (0.06 mg/mL) was added to the cells (2% glutaraldehyde and 0.01 mg/ml Hoechst 33342 final concentrations). The plates were incubated for 90 minutes at room temperature. The plates were then washed 3 times with 70 μL of PBS per well and imaged on a Cellomics ArrayScan instrument. The cells that were bound to the plate were counted and plotted against the compound concentration to determine the EC50 of the test compounds.

The target of a further experiment is T2, α4β7 integrin (Homo sapiens, UniProt P13612+P26010).
T2 construct: monitoring the capture of α4β7 integrin expressing cells; endogenous in cells; host or cells: RPMI8866
T2 sequence (P13612 34-1032): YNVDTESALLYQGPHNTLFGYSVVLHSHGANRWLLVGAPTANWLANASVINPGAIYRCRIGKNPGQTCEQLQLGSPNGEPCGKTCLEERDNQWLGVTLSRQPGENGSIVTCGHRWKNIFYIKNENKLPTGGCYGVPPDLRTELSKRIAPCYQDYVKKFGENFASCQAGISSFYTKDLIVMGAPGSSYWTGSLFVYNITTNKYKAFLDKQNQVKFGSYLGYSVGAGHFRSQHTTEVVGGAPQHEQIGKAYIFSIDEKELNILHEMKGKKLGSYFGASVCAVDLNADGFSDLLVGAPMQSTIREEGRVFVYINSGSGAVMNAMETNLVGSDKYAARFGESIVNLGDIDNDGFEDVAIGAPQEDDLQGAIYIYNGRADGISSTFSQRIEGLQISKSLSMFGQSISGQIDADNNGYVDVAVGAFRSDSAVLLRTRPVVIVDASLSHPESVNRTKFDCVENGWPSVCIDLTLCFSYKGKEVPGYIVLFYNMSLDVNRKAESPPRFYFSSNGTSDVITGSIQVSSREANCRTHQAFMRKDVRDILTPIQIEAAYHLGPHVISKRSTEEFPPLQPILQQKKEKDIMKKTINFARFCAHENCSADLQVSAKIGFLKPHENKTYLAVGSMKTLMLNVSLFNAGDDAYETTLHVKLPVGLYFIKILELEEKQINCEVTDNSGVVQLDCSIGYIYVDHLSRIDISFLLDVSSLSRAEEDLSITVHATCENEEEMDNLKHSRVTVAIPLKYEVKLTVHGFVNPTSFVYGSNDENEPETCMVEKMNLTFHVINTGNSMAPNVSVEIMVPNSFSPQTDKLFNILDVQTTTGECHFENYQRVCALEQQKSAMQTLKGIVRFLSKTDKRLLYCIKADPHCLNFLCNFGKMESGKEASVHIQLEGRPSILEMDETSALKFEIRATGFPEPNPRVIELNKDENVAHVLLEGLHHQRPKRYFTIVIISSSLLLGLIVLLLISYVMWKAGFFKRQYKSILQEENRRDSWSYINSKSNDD
T2 sequence (P26010 20-798): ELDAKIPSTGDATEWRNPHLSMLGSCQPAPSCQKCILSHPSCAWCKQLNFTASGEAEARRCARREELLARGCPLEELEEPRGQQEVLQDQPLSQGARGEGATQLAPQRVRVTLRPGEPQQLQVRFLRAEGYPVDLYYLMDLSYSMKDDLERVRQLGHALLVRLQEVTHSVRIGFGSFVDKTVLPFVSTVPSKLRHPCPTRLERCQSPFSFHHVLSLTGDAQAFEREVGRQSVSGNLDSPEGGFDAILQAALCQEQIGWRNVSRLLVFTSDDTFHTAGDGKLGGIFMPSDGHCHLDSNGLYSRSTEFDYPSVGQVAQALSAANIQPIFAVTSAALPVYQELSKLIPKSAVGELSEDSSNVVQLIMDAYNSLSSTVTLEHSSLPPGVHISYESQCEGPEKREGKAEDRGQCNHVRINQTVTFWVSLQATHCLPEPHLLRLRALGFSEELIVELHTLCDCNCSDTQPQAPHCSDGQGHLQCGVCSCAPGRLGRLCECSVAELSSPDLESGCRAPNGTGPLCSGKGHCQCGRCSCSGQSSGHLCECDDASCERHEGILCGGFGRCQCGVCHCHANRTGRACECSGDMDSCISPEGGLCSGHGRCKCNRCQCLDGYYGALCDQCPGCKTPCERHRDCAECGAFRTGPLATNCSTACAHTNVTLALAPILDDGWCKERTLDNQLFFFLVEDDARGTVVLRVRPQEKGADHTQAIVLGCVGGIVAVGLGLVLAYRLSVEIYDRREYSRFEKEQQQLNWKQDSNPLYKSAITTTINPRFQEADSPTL
The experiment in a line: α4β7 Integrin Cell Capture Assay. It counts as cell-based. The following applies: capture of α4β7 integrin expressing RPM18866 cells on MadCAM-1 extracellular domain-coated plate. On the procedure:
The potency of inhibitors in preventing α4β7 integrin interaction with MadCAM-1 was measured by monitoring the capture of α4β7 integrin expressing cells on a recombinant MadCAM-1 extracellular domain-coated plate.
384-well plates (Corning 3702) were coated with MadCAM-1 extracellular domain by dispensing 20 μL of MAdCAM-1 at 1.0 μg/mL per well and incubating overnight at 4° C. The plates were then washed with PBS and blocked with 3% BSA for 2 hours before being washed again.
as §1, with “RPM18866” for “Jurkat”, “cells/mL.” for “cells/ml.”, “MadCAM-1-coated” for “VCAM-1-coated”, “μL” for “μl”, “mg/mL” for “mg/ml Hoechst 33342”

T1 sequence (P05556 21-798, one chain of several): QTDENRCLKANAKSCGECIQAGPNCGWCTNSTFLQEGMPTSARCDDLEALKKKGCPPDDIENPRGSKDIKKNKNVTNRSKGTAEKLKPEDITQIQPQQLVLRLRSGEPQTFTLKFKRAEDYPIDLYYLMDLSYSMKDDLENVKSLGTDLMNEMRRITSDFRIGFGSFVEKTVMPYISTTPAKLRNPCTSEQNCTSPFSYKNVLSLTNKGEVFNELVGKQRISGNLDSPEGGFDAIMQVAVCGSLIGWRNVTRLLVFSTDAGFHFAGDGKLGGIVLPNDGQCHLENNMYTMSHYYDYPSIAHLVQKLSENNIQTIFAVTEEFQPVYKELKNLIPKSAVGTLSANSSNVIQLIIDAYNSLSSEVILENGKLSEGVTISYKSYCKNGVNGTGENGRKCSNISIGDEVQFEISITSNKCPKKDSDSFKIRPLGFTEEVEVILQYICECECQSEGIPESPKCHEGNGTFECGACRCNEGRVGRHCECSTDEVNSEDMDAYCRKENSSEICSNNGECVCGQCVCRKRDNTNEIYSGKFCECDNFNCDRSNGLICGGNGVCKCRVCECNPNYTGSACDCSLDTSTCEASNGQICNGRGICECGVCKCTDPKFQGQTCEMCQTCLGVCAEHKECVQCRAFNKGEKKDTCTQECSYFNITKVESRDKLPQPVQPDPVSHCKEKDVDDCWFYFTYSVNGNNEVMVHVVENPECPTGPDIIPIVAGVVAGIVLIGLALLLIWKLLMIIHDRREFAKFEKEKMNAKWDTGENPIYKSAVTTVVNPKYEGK

On to `Cc1cc(C[C@H](NC(=O)c2c(C)cc(N3CCOC[C@@H]3C(F)(F)F)cc2F)C(=O)O)ccc1-c1nc(C)c(C)n(C)c1=O` [Example 42], for which the EC50 was 5.8 nM at α4β1 integrin (Table 2) and 0.3 nM on α4β7 integrin (Table 2).
For the compound `Cc1cc(N2CCOC[C@@H]2C(F)(F)F)cc(F)c1C(=O)N[C@@H](Cc1ccc(-n2c(=O)c3c(n(C)c2=O)COC3)cc1)C(=O)O` [Example 66, (S)-2-(2-fluoro-6-methyl-4-((R)-3-(trifluoromethyl)morpholino)benzamido)-3-(4-(1-methyl-2,4-dioxo-1,2,5,7-tetrahydrofuro[3,4-d]pyrimidin-3(4H)-yl)phenyl)propanoic acid], the EC50 at α4β1 integrin (Table 1) worked out at 4.8 nM; at α4β7 integrin (Table 1), 0.1 nM.
Take `Cc1cc(C[C@H](NC(=O)c2c(F)cc(N3CCOC[C@@H]3C(F)(F)F)cc2F)C(=O)O)ccc1-c1c(C)n(C)c(=O)n(C)c1=O` [Example 39]: the results for the EC50 at α4β1 integrin (Table 2) and on α4β7 integrin (Table 2) were 12.8 nM and 0.4 nM, respectively.
The like results for `Cc1c(-c2ccc(C[C@H](NC(=O)c3c(F)cc(N4CCOC[C@@H]4C(F)(F)F)cc3F)C(=O)O)cc2)c(=O)n(C)c(=O)n1C` [Example 37] were, in that order, 9.8 nM and 0.4 nM.
For the compound `Cc1cc(N2CCOC[C@@H]2C(F)(F)F)cc(F)c1C(=O)N[C@@H](Cc1ccc(-n2c(=O)c3c(n(C)c2=O)COCC3)cc1)C(=O)O` [Example 63, (S)-2-(2-fluoro-6-methyl-4-((R)-3-(trifluoromethyl)morpholino)benzamido)-3-(4-(1-methyl-2,4-dioxo-1,2,4,5,6,8-hexahydro-3H-pyrano[3,4-d]pyrimidin-3-yl)phenyl)propanoic acid], the concentration for a half-maximal effect (EC50) on α4β1 integrin (Table 1) worked out at 3.7 nM; on α4β7 integrin (Table 1) it was 0.1 nM.
The like results for `Cc1cc(C(F)(F)F)c(-c2ccc(C[C@H](NC(=O)c3c(F)cc(N4CCOC[C@@H]4C(F)(F)F)cc3F)C(=O)O)cc2)c(=O)n1C` [Example 3, (S)-2-(2,6-difluoro-4-((R)-3-(trifluoromethyl)morpholino)benzamido)-3-(4-(1,6-dimethyl-2-oxo-4-(trifluoromethyl)-1,2-dihydropyridin-3-yl)phenyl)propanoic acid] were, in that order, 18.5 nM and 0.5 nM.
For the compound `COc1cnc2c(=O)n(-c3ccc(C[C@H](NC(=O)c4c(C)cc(N5CCOC[C@@H]5C(F)(F)F)cc4F)C(=O)O)cn3)c(=O)n(C)c2c1` [Example 78], the EC50 on α4β1 integrin (Table 2) amounted to 3.4 nM; at α4β7 integrin (Table 2), 0.16 nM.
As to `CC[C@@H](Nc1cc(F)c(C(=O)N[C@@H](Cc2ccc(-n3c(=O)c4cc(N(C)C)ccc4n(C)c3=O)cc2)C(=O)O)c(F)c1)C(F)(F)F` [Example 33], the EC50 at α4β1 integrin (Table 2) came to 105 nM; at α4β7 integrin (Table 2) it was 2.5 nM.
On the same counts, the results for `Cc1cc(N2CCOC[C@@H]2CC(F)(F)F)cc(F)c1C(=O)N[C@@H](Cc1ccc(-n2c(=O)c3ccncc3n(C)c2=O)nc1)C(=O)O` [Example 87] are 19.7 nM and 0.9 nM.
On to `Cc1cc(C[C@H](NC(=O)c2c(F)cc(N3CCOC[C@@H]3C(F)(F)F)cc2F)C(=O)O)ccc1-c1c(C(F)(F)F)cc(C)n(C)c1=O` [Example 29], for which the results for the EC50 on α4β1 integrin (Table 2) and at α4β7 integrin (Table 2) were 29 nM and 0.6 nM, respectively.
Take `Cc1cc(N2CCOC[C@@H]2C(F)(F)F)cc(F)c1C(=O)N[C@@H](Cc1ccc(-n2c(=O)c3ccncc3n(C)c2=O)nc1)C(=O)O` [Example 15, (S)-2-(2-fluoro-6-methyl-4-((R)-3-(trifluoromethyl)morpholino)benzamido)-3-(6-(1-methyl-2,4-dioxo-1,4-dihydropyrido[3,4-d]pyrimidin-3(2H)-yl)pyridin-3-yl)propanoic acid]: the figures for the EC50 on α4β1 integrin (Table 1) and at α4β7 integrin (Table 1) were 10.6 nM and 0.21 nM, respectively.
For the compound `Cc1cc(N2CCOC[C@@H]2C(F)(F)F)cc(F)c1C(=O)N[C@@H](Cc1ccc(-n2c(=O)c3c(n(C)c2=O)CCOC3)cc1)C(=O)O` [Example 59, (S)-2-(2-fluoro-6-methyl-4-((R)-3-(trifluoromethyl)morpholino)benzamido)-3-(4-(1-methyl-2,4-dioxo-1,5,7,8-tetrahydro-2H-pyrano[4,3-d]pyrimidin-3(4H)-yl)phenyl)propanoic acid], the EC50 amounted to 2.9 nM at α4β1 integrin (Table 1) and 0.1 nM on α4β7 integrin (Table 1).
Turning to `CC[C@@H](Nc1cc(F)c(C(=O)N[C@@H](Cc2ccc(-c3c(C(F)(F)F)cc(C)n(C)c3=O)cc2)C(=O)O)c(F)c1)C(F)(F)F` [Example 1, (S)-2-(2,6-difluoro-4-(((R)-1,1,1-trifluorobutan-2-yl)amino)benzamido)-3-(4-(1,6-dimethyl-2-oxo-4-(trifluoromethyl)-1,2-dihydropyridin-3-yl)phenyl)propanoic acid], the results for the half-maximal effective concentration (EC50) at α4β1 integrin (Table 1) and on α4β7 integrin (Table 1) were 10.3 nM and 1.4 nM, respectively.
On to `Cc1cc(C[C@H](NC(=O)c2c(C)cc(N3CCOC[C@@H]3C(F)(F)F)cc2F)C(=O)O)ccc1-c1c(C)nc(C)n(C)c1=O` [Example 40], for which the EC50 at α4β1 integrin (Table 2) amounted to 7.7 nM; on α4β7 integrin (Table 2), 0.3 nM.
